One assay has as its system mexY (EC) strain. Briefly: Efflux ability inhibition effect on drug efflux pump MexY (Test Examples 1 and 3): proliferation (OD595) of mexY (EC) strain with EM or LVFX at 1/4 MIC, EC75. To be noted: for EC75, mexY (EC) strain, EM: combined with EM at 1/4 MIC; for EC75, mexY (EC) strain, LVFX: combined with LVFX at 1/4 MIC. It is filed as cell-based, Escherichia coli. A digest of the protocol: (§1)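 E. coli ΔacrB/ΔtolC strains carrying P. aeruginosa MexAB-OprM or MexXY-OprM were grown in LB for 16 to 20 hours with EM or LVFX at ¼ MIC plus compound (0 to 800 μM). Growth was read as OD595. EC75 is the lowest compound concentration giving ≥75% growth inhibition versus antibiotic alone.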

The test system of a further assay is mexB (EC) strain. The experiment in a line: Efflux ability inhibition effect on drug efflux pump MexB (Test Examples 1 and 3): proliferation (OD595) of mexB (EC) strain with EM or LVFX at 1/4 MIC, EC75. It is filed as cell-based, Escherichia coli. To be noted: for EC75, mexB (EC) strain, LVFX: combined with LVFX at 1/4 MIC; for EC75, mexB (EC) strain, EM: combined with EM at 1/4 MIC. Put shortly: as §1

In the next assay the test system is mexB (PA) strain. Briefly: Combinational effect with antibacterial agent against Pseudomonas aeruginosa (Test Examples 2 and 4): mexB (PA) strain with LVFX, TC or AZT at 1/4 MIC, EC99. The assay is classed as cell-based. To be noted: mexB (PA) strain, Test Example 4; for EC99, combinational effect with AZT, mexB (PA): combined with AZT at 1/4 MIC; for EC99, combinational effect with LVFX, mexB (PA): combined with LVFX at 1/4 MIC; for EC99, combinational effect with TC, mexB (PA): combined with TC at 1/4 MIC. A digest of the protocol: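 P. aeruginosa mexB (PA) strain, lacking MexCD-OprJ, MexEF-OprN and MexXY and overexpressing MexAB-OprM, grown 16–20 h in CAMHB (10^4–5 CFU/well) with LVFX, TC or AZT at ¼ MIC plus test compound at 0–800 μM. Growth read as OD595; EC99 is the lowest compound concentration giving ≥99% growth inhibition.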

Another assay relates to S-3769 strain. Briefly: Combinational effect with antibacterial agent against Pseudomonas aeruginosa (Test Examples 2 and 4): S-3769 strain with AMK or GM at 1/4 MIC, EC99. The assay is classed as cell-based. The note with it: S-3769 strain, Test Example 4; for EC99, combinational effect with AMK, S-3769 strain: combined with AMK at 1/4 MIC; for EC99, combinational effect with GM, S-3769 strain: combined with GM at 1/4 MIC. Put shortly:
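P. aeruginosa S-3769 (clinical isolate, MexY overexpressed) grown 16–20 h in CAMHB, 10^4 to 5 CFU/well, with AMK or GM at ¼ MIC plus test compound 0–800 μM. Growth read as OD595; EC99 is the lowest compound concentration giving ≥99% growth inhibition.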

Where [1] appears, read: Table 51, Test Example 1, 16 to 20 hours culture, OD595.
The mark [2] stands for this setting: Table 53, Test Example 3, same manner as Test Example 1.

Structures are written as SMILES. Structures can show the parent of a compound that is named as a salt.

Results on six compounds are retold here after patent publication US20250326744A1, “PIPERAZINE DERIVATIVE OR SALT THEREOF, AND PHARMACEUTICAL COMPOSITION” (priority 2022, published 2025).

As to `COc1ccccc1CN1CCN(C(=O)CN2CCC(N)(CCc3ccccc3)CC2)CC1` [Example 414, hydrochloride of 2-(4-amino-4-phenethylpiperidin-1-yl)-1-(4-(2-methoxybenzyl)piperazin-1-yl)ethan-1-one], in the assay with mexY (EC) strain (setting [1]), the “EC75, mexY (EC) strain, EM” value was “B (25 μM<EC75≤100 μM)” and the “EC75, mexY (EC) strain, LVFX” value was “B (25 μM<EC75≤100 μM)”. In addition, in the assay with mexB (EC) strain (setting [1]), the “EC75, mexB (EC) strain, LVFX” value was “A (12.5 μM<EC75≤25 μM)”.

On to `COc1ccccc1CN1CCN(C(=O)[C@@H](N)C2CCN(CCc3ccccc3)CC2)CC1` [Example 112, Hydrochloride of (S)-2-amino-1-(4-(2-methoxybenzyl)piperazin-1-yl)-2-(1-phenethylpiperidin-4-yl)ethan-1-one], for which, in the assay on mexY (EC) strain (setting [1]), the “EC75, mexY (EC) strain, EM” value was “A (12.5 μM<EC75≤25 μM)” and the “EC75, mexY (EC) strain, LVFX” value is listed as “A (12.5 μM<EC75≤25 μM)”. For the same compound, in the assay on mexB (EC) strain (setting [1]), the “EC75, mexB (EC) strain, EM” value was “B (25 μM<EC75≤100 μM)” and the “EC75, mexB (EC) strain, LVFX” value is “B (25 μM<EC75≤100 μM)”.

Consider `COc1cncc(F)c1CN1CCN(C(=O)[C@H](N)C2CCN(CCc3cc(Cl)ccc3-c3ccccc3)CC2)CC1` [Example 514, Hydrobromide of (R)-2-amino-2-(1-(2-(4-chloro-[1,1-biphenyl]-2-yl)ethyl)piperidin-4-yl)-1-(4-((3-fluoro-5-methoxypyridin-4-yl)methyl)piperazin-1-yl)ethan-1-one], for which, in the assay on mexY (EC) strain (setting [2]), the “EC75, mexY (EC) strain, EM” value was “B (25 μM<EC75≤100 μM)” and the “EC75, mexY (EC) strain, LVFX” value was “B (25 μM<EC75≤100 μM)”. Moreover, in the assay with mexB (EC) strain (setting [2]), the “EC75, mexB (EC) strain, EM” value was “B (25 μM<EC75≤100 μM)” and the “EC75, mexB (EC) strain, LVFX” value is “B (25 μM<EC75≤100 μM)”. Besides, in the assay with mexB (PA) strain, the “EC99, combinational effect with AZT, mexB (PA)” value is recorded as “C (100 μM<EC99)”; the “EC99, combinational effect with LVFX, mexB (PA)” value was “C (100 μM<EC99)”; the “EC99, combinational effect with TC, mexB (PA)” value was “C (100 μM<EC99)”. In addition, in the assay on S-3769 strain, the “EC99, combinational effect with AMK, S-3769 strain” value was “B (25 μM<EC99≤100 μM)” and the “EC99, combinational effect with GM, S-3769 strain” value is given as “B (25 μM<EC99≤100 μM)”.

Turning to `CCOc1cccc(/C=C/C#N)c1CN1CCN(C(=O)[C@H](N)C2CCN(CCc3ccccc3)CC2)CC1` [Example 34], in the assay with mexY (EC) strain (setting [1]), the “EC75, mexY (EC) strain, EM” value is given as “A (12.5 μM<EC75≤25 μM)” and the “EC75, mexY (EC) strain, LVFX” value is listed as “A (12.5 μM<EC75≤25 μM)”. For the same compound, in the assay on mexB (EC) strain (setting [1]), the “EC75, mexB (EC) strain, EM” value is reported as “B (25 μM<EC75≤100 μM)” and the “EC75, mexB (EC) strain, LVFX” value is “B (25 μM<EC75≤100 μM)”.

On to `N[C@@H](C(=O)N1CCN(C[C@@H]2CCCN2)CC1)C1CCN(CCc2cc(Cl)ccc2-c2ccccc2)CC1` [Example 538, Hydrobromide of (R)-2-amino-2-(1-(2-(4-chloro-[1,1-biphenyl]-2-yl)ethyl)piperidin-4-yl)-1-(4-(((S)-pyrrolidin-2-yl)methyl)piperazin-1-yl)ethan-1-one], for which the “EC75, mexY (EC) strain, LVFX” value in the assay on mexY (EC) strain (setting [2]) is listed as “A (12.5 μM<EC75≤25 μM)”. The “EC75, mexB (EC) strain, LVFX” value with mexB (EC) strain (setting [2]) is on record as “B (25 μM<EC75≤100 μM)”. Moreover, in the assay on mexB (PA) strain, the “EC99, combinational effect with AZT, mexB (PA)” value is reported as “C (100 μM<EC99)”; the “EC99, combinational effect with LVFX, mexB (PA)” value is listed as “C (100 μM<EC99)”; the “EC99, combinational effect with TC, mexB (PA)” value is “C (100 μM<EC99)”. In the assay on S-3769 strain, the “EC99, combinational effect with AMK, S-3769 strain” value is listed as “C (100 μM<EC99)” and the “EC99, combinational effect with GM, S-3769 strain” value is listed as “C (100 μM<EC99)”.

Take `COc1ccccc1CN1CCN(C(=O)CN2CCC(NCc3ccccc3)CC2)CC1` [Example 419, hydrochloride of 2-(4-(benzylamino)piperidin-1-yl)-1-(4-(2-methoxybenzyl)piperazin-1-yl)ethan-1-one]: in the assay on mexY (EC) strain (setting [1]), the “EC75, mexY (EC) strain, EM” value is recorded as “B (25 μM<EC75≤100 μM)” and the “EC75, mexY (EC) strain, LVFX” value was “B (25 μM<EC75≤100 μM)”. Further, in the assay with mexB (EC) strain (setting [1]), the “EC75, mexB (EC) strain, LVFX” value is reported as “A (12.5 μM<EC75≤25 μM)”.
